Data on two compounds can be found in patent US6037386A, “Composition for inactivating irritants in fluids” (priority 1999, dated 2000).

The test system of data set [1] is HBV. In words: Cidal concentration of CHG (1 minute kill), HBV. The data set is classed as cell-based.
Data set [2] concerns Staphylococcus aureus. The experiment in a line: CFU in glove fingers inoculated with blood containing Staphylococcus aureus (synergistic activity). The data set is classed as cell-based. The note with it: 2 minutes; CHG 450 μg, ZnO 12.5 mg. As for the experimental part:
Synergistic Activity of Zinc Oxide and CHX. CHG, ZnO, and a combination thereof was added to each glove finger. Glove fingers were then inoculated with 0.1 mL of blood containing 10^5 CFU Staphylococcus aureusmL. After 2 minutes, 0.9 mL of LTSB was added, and 0.2 mL of the extract were plated to determine colony counts.
This experiment was carried out using the method described in Example 14.

The subject of data set [3] is HIV. The experiment in a line: Cidal concentration of CHG (1 minute kill), HIV. The data set is classed as cell-based.
The nature of data set [4]: Product formed on mixing zinc salts with CHG / gel formation. The data set is classed as physicochemical.
Procedure: The following zinc salts were mixed with CHG for 1 hour and observed for the resulting product.

For `N=C(NCCCCCCNC(=N)NC(=N)Nc1ccc(Cl)cc1)NC(=N)Nc1ccc(Cl)cc1` [CHG, chlorhexidine gluconate], the “cidal concentration for HBV (1 minute kill)” value in data set [1] was “the same as that for Staphylococcus aureus”. For the same compound, the CFU/glove finger in data set [2] was 1420 CFU/glove finger. In data set [3], the “cidal concentration for HIV (1 minute kill)” value is “the same as that for Staphylococcus aureus”.
For the compound zinc gluconate, in data set [4], the “gel formation (in words)” value was “forming a gel matrix when mixed with water or alcohol”.
